Source: patent US11608328B2, “Chemical probes to identify anti-mycobacterial MmpL3 inhibitors” (Creighton University, priority 2019, dated 2023)
Values after ≈ are worked out from the molar mass of the structure shown. Values joined by “and” are separate entries in the source; they are usually repeats but may differ in a detail not shown here. Equal entries are not always repeated. “Also recorded” adds a separate entry of the source. Where two headings read alike, the source gives them in different places. Marks after values point to notes of the source that are not given here.

Assays:
Mtb = experiment: MIC values against Mtb used for the PMF assays; assay type: cell-based, Mycobacterium tuberculosis; settings: read-out: MIC values
[1] = tested on: MsmgΔmmpL3 expressing mmpL3tb L189R; assay type: cell-based, Mycobacterium smegmatis
[2] = tested on: MsmgΔmmpL3 expressing mmpL3tb S591I; assay type: cell-based, Mycobacterium smegmatis
[3] = tested on: MsmgΔmmpL3 expressing mmpL3tb V684W; assay type: cell-based, Mycobacterium smegmatis
[4] = tested on: MsmgΔmmpL3 expressing mmpL3tb G253W; assay type: cell-based, Mycobacterium smegmatis
[5] = tested on: MsmgΔmmpL3 expressing mmpL3tb G253E; assay type: cell-based, Mycobacterium smegmatis
[6] = tested on: MsmgΔmmpL3 expressing mmpL3tb V684G; assay type: cell-based, Mycobacterium smegmatis
[7] = tested on: MsmgΔmmpL3 expressing mmpL3tb V684I; assay type: cell-based, Mycobacterium smegmatis
[8] = tested on: MsmgΔmmpL3 expressing mmpL3tb V684A; assay type: cell-based, Mycobacterium smegmatis
[9] = tested on: MsmgΔmmpL3 expressing mmpL3tb F644C/I/L; assay type: cell-based, Mycobacterium smegmatis
[10] = tested on: MsmgΔmmpL3 expressing mmpL3tb G253R; assay type: cell-based, Mycobacterium smegmatis
[11] = tested on: MsmgΔmmpL3 expressing mmpL3tb LI89A; experiment: microbe, parasite or virus in culture; assay type: cell-based; settings: Table 2, mutant LI89A
[12] = tested on: MsmgΔmmpL3 expressing mmpL3tb S591G; assay type: cell-based, Mycobacterium smegmatis
[13] = tested on: MsmgΔmmpL3 expressing mmpL3tb F644Y; assay type: cell-based, Mycobacterium smegmatis
[14] = tested on: MsmgΔmmpL3 expressing wild-type mmpL3tb; experiment: microbe, parasite or virus in culture; assay type: cell-based
[15] = tested on: MsmgΔmmpL3 expressing mmpL3tb S591W; assay type: cell-based, Mycobacterium smegmatis
[16] = tested on: MmpL3tb-GFP in MsmgΔmmpL3/pMVGH1-mmpL3tb-GFP cells; assay type: cell-based; settings: 2 μM probe, 4 h at 37° C.
[17] = tested on: MsmgΔmmpL3 expressing mmpL3tb S288T; assay type: cell-based, Mycobacterium smegmatis
[18] = tested on: MsmgΔmmpL3 expressing mmpL3tb T311I; assay type: cell-based, Mycobacterium smegmatis
[19] = tested on: MsmgΔmmpL3 expressing mmpL3tb F644C; assay type: cell-based, Mycobacterium smegmatis
[20] = tested on: MsmgΔmmpL3 expressing mmpL3tb L567P; assay type: cell-based, Mycobacterium smegmatis
[21] = tested on: MsmgΔmmpL3 expressing mmpL3tb S309C; assay type: cell-based, Mycobacterium smegmatis
purified MmpL3tb protein = purified MmpL3tb protein (Mycobacterium tuberculosis, UniProt P9WJV5); experiment: Surface Plasmon Resonance binding to immobilized MmpL3tb; settings: for Kd: read-out: KD1
[22] = tested on: MsmgΔmmpL3 expressing mmpL3tb Q372R; assay type: cell-based, Mycobacterium smegmatis
[23] = target: T1, MmpL3tb- and MmpL3tb-GFP-coated particles (Mycobacterium tuberculosis, UniProt P9WJV5); assay type: binding; settings: 15 min at room temperature; various probe concentrations
T1 construct: His tag; made in house; host or cells: Mycobacterium smegmatis ΔmmpL3 carrying pMVGH1-mmpL3tb or pMVGH1-mmpL3tb-gfp

MmpL3tb (MmpL3^WT) = MmpL3tb (MmpL3^WT) (Mycobacterium tuberculosis, UniProt P9WJV5); assay type: binding; settings: 50, 100 and 200 μM
[24] = tested on: Mtb H37Rv mc^26206 inverted membrane vesicles (IMVs); experiment: Succinate-driven proton translocation assay (ACMA) in inverted membrane vesicles; assay type: biochemical, Mycobacterium tuberculosis; settings: one and four times MIC against Mtb
Description: (§1) FIG. 19A: The reactions were initiated by adding 5 mM succinate. Upon stabilization of the signal, control compounds (INH, RIF, nigericin), the MmpL3 inhibitors or diluent (water, used for INH, or 0.2% DMSO, used for all other compounds) were added and proton translocation monitored fluorimetrically. MmpL3 inhibitors and controls were used at one and four times their MIC concentrations against Mtb. Shown are the averages and standard deviations (error bars) of triplicate measurements.
(§2) Succinate-driven proton translocation assays with the fluorescent substrate ACMA were conducted as previously described (see e.g., Li et al. J. Med. Chem. 2014, 57: 3126-3139) to determine the effect of MmpL3 inhibitors on the electrochemical proton gradient of Mtb H37Rv mc^26206 and E. coli BL21(DE3) IMVs. IMVs (0.18 mg/mL membrane proteins) were pre-incubated at 37° C. in 10 mM HEPES-KOH pH 7.5, 100 mM KCl, 5 mM MgCl2 containing 2 μM ACMA and the baseline monitored for 10 min with a fluorescence spectrophotometer (Victor X5, PerkinElmer). The reaction was then initiated by adding 5 mM succinate. Upon stabilization of the signal, control compounds (INH, RIF, nigericin), MmpL3 inhibitors, or diluent (0.2% DMSO or water) were added and proton translocation monitored fluorimetrically. The excitation and emission wavelengths were 410 nm and 480 nm, respectively.

E. coli BL21(DE3) IMVs = experiment: as above; assay type: biochemical; settings: 2 μg/mL
Description: as §1, §2

purified MmpL3-GFP = purified MmpL3-GFP (Mycobacterium tuberculosis, UniProt P9WJV5); assay type: binding
[25] = Mycolicibacterium smegmatis, Tables 1A-1B, MmpL3 WT, read-out: MIC

Sequence of purified MmpL3tb protein (P9WJV5 whole entry): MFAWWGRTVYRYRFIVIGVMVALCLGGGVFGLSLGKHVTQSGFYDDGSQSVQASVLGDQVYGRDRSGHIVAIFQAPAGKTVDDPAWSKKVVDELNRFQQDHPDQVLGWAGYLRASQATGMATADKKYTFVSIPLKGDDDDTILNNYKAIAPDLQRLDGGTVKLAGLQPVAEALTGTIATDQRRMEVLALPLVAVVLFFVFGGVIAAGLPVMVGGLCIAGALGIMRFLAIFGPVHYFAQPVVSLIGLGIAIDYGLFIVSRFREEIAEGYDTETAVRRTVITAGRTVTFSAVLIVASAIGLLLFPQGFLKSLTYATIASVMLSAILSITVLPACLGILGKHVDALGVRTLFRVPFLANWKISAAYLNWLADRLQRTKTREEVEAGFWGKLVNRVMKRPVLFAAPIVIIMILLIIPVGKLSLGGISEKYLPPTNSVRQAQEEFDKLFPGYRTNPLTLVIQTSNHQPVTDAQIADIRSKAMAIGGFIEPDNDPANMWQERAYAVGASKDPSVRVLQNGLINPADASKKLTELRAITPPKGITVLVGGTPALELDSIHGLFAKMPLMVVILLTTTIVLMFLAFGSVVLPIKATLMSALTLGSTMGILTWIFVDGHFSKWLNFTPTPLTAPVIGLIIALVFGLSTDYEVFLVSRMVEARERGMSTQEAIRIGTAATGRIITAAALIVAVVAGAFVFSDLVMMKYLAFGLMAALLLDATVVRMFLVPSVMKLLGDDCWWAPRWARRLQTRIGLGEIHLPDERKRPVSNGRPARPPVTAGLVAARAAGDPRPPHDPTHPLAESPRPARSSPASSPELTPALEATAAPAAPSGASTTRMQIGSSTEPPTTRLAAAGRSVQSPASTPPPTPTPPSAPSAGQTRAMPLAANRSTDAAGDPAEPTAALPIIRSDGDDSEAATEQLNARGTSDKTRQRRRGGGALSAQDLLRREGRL
Sequence of MmpL3tb (MmpL3^WT) (P9WJV5 whole entry): as above
T1 sequence (P9WJV5 whole entry): as above
Sequence of purified MmpL3-GFP (P9WJV5 whole entry): as above

Compound	MIC [1]	MIC [2]	MIC [5]	MIC [6]	MIC [8]	MIC [17]	MIC [18]	MIC [19] [µg/mL]	MIC [20]	MIC [21]	MIC [14, 25] [µg/mL]	MIC [22]	BLI binding signal (MmpL3tb (MmpL3^WT))	MIC ([14]; Tables 1A-1B, MmpL3 WT) [µg/mL]	also measured
N#CC(C#N)=NNc1cccc(Cl)c1 [CCCP]	–	–	–	–	–	–	–	–	–	–	–	–	–	–	MIC (Mtb; against Mtb, FIG. 8 legend): 6.25 µM (≈ 1.28 µg/mL)
O=C(O)c1cn(C2CC2)c2cc(N3CCNCC3)c(F)cc2c1=O [CIP, ciprofloxacin]	0.31 µg/mL (≈ 0.936 µM)	0.31 µg/mL (≈ 0.936 µM)	0.31 µg/mL (≈ 0.936 µM)	0.31 µg/mL (≈ 0.936 µM)	0.31 µg/mL (≈ 0.936 µM)	–	–	–	–	–	–	–	–	–	MIC [3]: 0.31 µg/mL (≈ 0.936 µM); MIC [4]: 0.31 µg/mL (≈ 0.936 µM); MIC [7]: 0.31 µg/mL (≈ 0.936 µM); MIC [9]: 0.31 µg/mL (≈ 0.936 µM); MIC [10]: 0.31 µg/mL (≈ 0.936 µM); MIC ([11]; Mycolicibacterium smegmatis, read-out: MIC): 0.31 µg/mL (≈ 0.936 µM); MIC [12]: 0.31 µg/mL (≈ 0.936 µM); MIC [13]: 0.31 µg/mL (≈ 0.936 µM); MIC ([14]; Mycolicibacterium smegmatis): 0.31 µg/mL (≈ 0.936 µM); MIC [15]: 0.31 µg/mL (≈ 0.936 µM)
CN(C)c1ccc2c(-c3ccc(C(=O)NCCCCCCn4cc(COc5ccc6[nH]c(C(=O)NC7CCCCCCC7)cc6c5)nn4)cc3C(=O)O)c3ccc(=[N+](C)C)cc-3oc2c1 [Compound 1]	>32^b μg/mL	>32^b μg/mL	>32^b μg/mL	>32^b μg/mL	>32^b μg/mL	>32^b μg/mL	>32^b μg/mL	16	32^b μg/mL	>32^b μg/mL	8	>32^b μg/mL	–	–	colocalization with MmpL3tb-GFP [16]: colocalization of the probes with MmpL3tb-GFP; ka2 (purified MmpL3tb protein; SPR global fit): 0.039 1/RU*s; kd1 (purified MmpL3tb protein; SPR global fit): 0.19 s⁻¹; kd2 (purified MmpL3tb protein; SPR global fit): 0.0273 s⁻¹; ka1 (purified MmpL3tb protein; SPR global fit, HEPES-TX buffer with 5% DMSO): 2138.3 M⁻¹ s⁻¹; Model (best-fit kinetic model) (purified MmpL3tb protein; SPR sensorgrams fit globally): Two-state reaction; Kd (purified MmpL3tb protein; equilibrium dissociation constant calculated from the rate constants): 36.1 µM; SPR binding signal (purified MmpL3tb protein; in words): strong SPR signals; probe binding to coated particles (MFI) [23]: concentration-dependent binding
C[C@@H]1[C@H]2C[C@@H](C[C@H]1NC(=O)c1cc3ccccc3[nH]1)C2(C)C [North 4]	1.28^a μg/mL	0.64^b μg/mL	1.28^a μg/mL	1.28^a μg/mL	0.32 µg/mL (≈ 1.08 µM)	1.28^a μg/mL	0.08 µg/mL (≈ 0.27 µM)	0.32 (≈ 1.08 µM)	0.64^b μg/mL	1.28^a μg/mL	0.16 (≈ 0.54 µM)	0.32 µg/mL (≈ 1.08 µM)	consistently bound to MmpL3tb with the strongest signals	–	–
Cc1cc(C)c2cc(C(=O)NC3CCCCCCC3)[nH]c2c1 [North 21]	0.2^b μg/mL	0.1 µg/mL (≈ 0.335 µM)	0.2^b μg/mL	0.2^b μg/mL	0.05 µg/mL (≈ 0.168 µM)	0.2^b μg/mL	0.05 µg/mL (≈ 0.168 µM)	0.05 (≈ 0.168 µM)	0.1 µg/mL (≈ 0.335 µM)	0.2^b μg/mL	0.05 (≈ 0.168 µM)	0.05 µg/mL (≈ 0.168 µM)	consistently bound to MmpL3tb with the strongest signals	–	–
CO[C@H]1/C=C/O[C@@]2(C)Oc3c(C)c(O)c4c(O)c(c(/C=N/N5CCN(C)CC5)c(O)c4c3C2=O)NC(=O)/C(C)=C\C=C\[C@H](C)[C@H](O)[C@@H](C)[C@@H](O)[C@@H](C)[C@H](OC(C)=O)[C@@H]1C [RIF, rifampicin]	–	–	–	–	–	–	–	–	–	–	–	–	–	–	MIC (Mtb; Mycobacterium tuberculosis): 0.19 µM (≈ 0.156 µg/mL)
CO[C@@H]1C[C@@H](C[C@H]2CC[C@H](C)[C@H]([C@@H](C)C(=O)O)O2)O[C@]2(O[C@](C)([C@H]3CC[C@@](C)([C@@H]4O[C@@H]([C@H]5O[C@@](O)(CO)[C@H](C)C[C@@H]5C)C[C@@H]4C)O3)C[C@H]2C)[C@@H]1C [nigericin]	–	–	–	–	–	–	–	–	–	–	–	–	–	–	effect on ΔpH of Mtb IMVs [24]: increase of fluorescence intensity indicative of ΔpH collapse; effect on ΔpH of E. coli IMVs (E. coli BL21(DE3) IMVs): collapse the ΔpH of E. coli IMVs; MIC (Mtb; Mycobacterium tuberculosis, against Mtb, FIG. 8 legend): 4.31 µM (≈ 3.12 µg/mL)
AU1235	1.56^b μg/mL and 1.25 μg/mL	3.13^a μg/mL and 2.5 μg/mL	3.13^a μg/mL and 5 μg/mL	3.13^a μg/mL and 2.5 μg/mL	1.56^b μg/mL and 1.25 μg/mL	12.5^a μg/mL	1.56^b μg/mL	0.78	0.78 µg/mL	3.13^b μg/mL	–	0.78 µg/mL	weak binding signal	0.39	MIC [3]: 0.62 µg/mL; MIC [4]: 2.5-5 ^ μg/mL; MIC [7]: 0.31^c μg/mL; MIC [9]: 0.62 µg/mL; MIC [10]: 0.62^c μg/mL; MIC [11]: 0.62^c μg/mL; effect on ΔpH of Mtb IMVs [24]: increase of fluorescence intensity indicative of ΔpH collapse; also recorded: also collapsed ΔpH in this assay when used at 4-fold MIC concentration; MIC [12]: 0.31-0.62^c μg/mL; MIC [13]: 0.15^c μg/mL; Model (best-fit kinetic model) (purified MmpL3tb protein): Two-state reaction; SPR binding signal (purified MmpL3tb protein): strong SPR signals; ka1 (purified MmpL3tb protein): 1858.1 M⁻¹ s⁻¹; ka2 (purified MmpL3tb protein): 0.019 1/RU*s; kd1 (purified MmpL3tb protein): 0.39 s⁻¹; kd2 (purified MmpL3tb protein): 0.0316 s⁻¹; Kd (purified MmpL3tb protein): 132 µM; displacement of Compound 2 from purified MmpL3tb (purified MmpL3-GFP): clear concentration-dependent displacement; MIC ([14]; Table 2, MmpL3 WT): 0.31 µg/mL; MIC (Mtb; against Mtb, FIG. 8 legend): 0.48 µM; MIC [15]: 0.62^c μg/mL
Methyl 4-(3-((3s,5s,7s)-adamantan-1-yl)ureido)-2-((1-(3-(3-(5,5-difluoro-7,9-dimethyl-5H-5λ^4,6λ^4-dipyrrolo[1,2-c:2′,1′-f][1,3,2]diazaborinin-3-yl)propanamido)propyl)-1H-1,2,3-triazol-4-yl)methoxy)benzoate [Compound 4]	–	–	–	–	–	–	–	–	–	–	–	–	–	64	probe binding to coated particles (MFI) [23]: concentration-dependent binding
N-cyclooctyl-5-((1-(3-(3-(5,5-difluoro-7,9-dimethyl-5H-5λ^4,6λ^4-dipyrrolo[1,2-c:2′,1′-f][1,3,2]diazaborinin-3-yl)propanamido)propyl)-1H-1,2,3-triazol-4-yl)methoxy)-1H-indole-2-carboxamide [Compound 3]	–	–	–	–	–	–	–	–	–	–	–	–	–	32	–
